Data on two molecules can be found in patent US7465559B2, “Method for calibrating antibiotic disk diffusion testing of microorganisms” (Bioscand AB, priority 2001, dated 2008).

Assay [1] has as its system Escherichia coli isolates. In words: disk diffusion test of Escherichia coli clinical isolates against norfloxacin, Karolinska hospital, zone diameter histograms 1988 and 1999. In kind it is cell-based. As to the method:
(§1) Different types of susceptibility tests can be used to test the antimicrobic susceptibility of a microorganism. One type of susceptibility test is the disk diffusion test. This is a standardized test, in which a plate containing a growth medium in agar gel is inoculated with a microbial isolate and one or more disks impregnated with fixed concentrations of antibiotics are placed thereon. After appropriate incubation, the diameter of zones of inhibition around the disks (if present) are registered in order to determine the sensitivity of the inoculated microorganism to the particular antimicrobial agent impregnated in each disk.
The microbial species to be tested can be any cultivable microorganism, such as a bacterial species or a fungal species. In order to obtain species-related and laboratory-related interpretive breakpoints, a histogram of for example clinical isolates can be used. The method is especially suitable for analyzing inhibition zone diameters from disk diffusion tests with clinical isolates from a bacterial species, which may contain resistant strains against an antibiotic. Thus, no outliers are excluded. The number of isolates or percent isolates are plotted on the y-axis and the growth inhibition zone diameter values from paper disks impregnated with the antibiotic are plotted on the x-axis. When the method of O'Brien et al. (J. Am. Med. Assoc. 210:84, 1969) is used, histograms are obtained with percent isolates on the y-axis and zone diameter values from 6 mm (paper disk diameter) to 60 mm on the x-axis. However, the inventive method is equally well adapted for a microdilution tests, the concentration data being minimal inhibitory concentrations. All data can be computerized.
It can be seen that the zone diameter values for these clinical isolates cluster around 29-30 mm with a distribution of ±8 mm.
The results from 1988 in FIG. 1 were compared with similar results eleven years later (FIG. 2). In this histogram a number of isolates now appear, which have inhibition zones all the way down to no zone, the size of the 6 mm disk. The comparison was accomplished by means of computer analysis according to the inventive method for calibrating antimicrobic susceptibility testings of microorganisms.
First, the slope downwards was tracked and the shift to decreasing values at the peak position identified by comparing sliding means (each based on two zone diameter figures). Then, the percentages of the isolates of the upper half of the population were determined and converted to probit values. A regression using the least squares method was then performed and the theoretical percentages for the whole population calculated.
In this calculation, it is assumed that 3 SD below the mean includes 99.86 percent of the normally susceptible strains in this group. A suitable limit for susceptibility interpretation and comparative analysis of antimicrobic resistance could then be defined as three times the standard deviation below the mean value.

For assay [2], the system named is E. coli. In words: disk diffusion test of E. coli against gentamicin, laboratory KS, SRGA methodology. In kind it is cell-based, Escherichia coli. The settings on record: 10 μg gentamicin disk. As to the method: as §1
(§2) In this example histograms of zone diameter values from disk test results for E. coli tested against the antibiotic gentamicin were analyzed according to the principle of normalized resistance interpretation. One laboratory (KS) used the SRGA (Swedish Reference Group for Antibiotics) methodology and a disk content of 10 μg gentamicin, whereas the other laboratory on a different continent (AR, a clinical microbiology laboratory in South America) used the NCCLS (National Committee for Clinical Laboratory Standards) standardization and a 5 μg gentamicin disk.
(§3) The different methods used result in different positionings of the major, susceptible populations of strains (FIG. 5). […]

Assay [3] has as its system E. coli. In words: disk diffusion test of E. coli against gentamicin, laboratory AR (South America), NCCLS standardization. As to conditions: 5 μg gentamicin disk. The format is cell-based, Escherichia coli. As to the method:
as §1, §2, §3

Some results are limits rather than exact numbers.

Turning to `CCn1cc(C(=O)O)c(=O)c2cc(F)c(N3CCNCC3)cc21` [norfloxacin], the “mean value of inhibition zone diameters, customary statistical procedure” value in assay [1] (1988, 3756 isolates, disk 10 μg, SD 3.22) was 29.16 mm; in assay [1] (eleven years later (1999), all 5944 isolates, SD 7.39), 28.24 mm. The “mean of normalized Gaussian distribution of theoretical normal population” value in assay [1] (1988, 3756 isolates, disk 10 μg, SD 3.25) is 29.27 mm; in assay [1] (eleven years later (1999), 5944 isolates, SD 3.22), 30.49 mm. Further, the “zone diameter values of clinical isolates cluster around” value in assay [1] (1988 histogram, disk content 10 μg, distribution ±8 mm) is listed as 29-30 mm. In addition, the “limit for resistance (zone breakpoint, 3 SD below normalized mean)” value in assay [1] (1988 population) stood at 19 mm; in assay [1] (1999 population) it was 20 mm. Moreover, the “percent resistance of isolates” value was found to be 0.56% in assay [1] (1988 population, limit 19 mm) and 10.8% in assay [1] (1999 population, limit 20 mm).

Consider gentamicin, for which the entries for the “R-limit for resistance (normalized zone breakpoint)” value in the assay with E. coli [2] and in the assay with E. coli [3] were less than 21 mm and less than 17 mm, respectively.
